One assay addresses Carbonic anhydrase 1 (Homo sapiens, UniProt P00915). Briefly: Inhibition of human recombinant carbonic anhydrase 1 assessed as CO2 hydration preincubated for 15 mins prior to testing measured for 10 to 100 secs by phenol red dye-based stopped-flow assay.
The target of the next assay is Carbonic anhydrase 2 (Homo sapiens, UniProt P00918). Briefly: Inhibition of human recombinant carbonic anhydrase 2 assessed as CO2 hydration preincubated for 15 mins prior to testing measured for 10 to 100 secs by phenol red dye-based stopped-flow assay.
The target of another assay is Carbonic anhydrase 7 (Homo sapiens, UniProt P43166). As to the kind of experiment: Inhibition of human recombinant carbonic anhydrase 7 assessed as CO2 hydration preincubated for 15 mins prior to testing measured for 10 to 100 secs by phenol red dye-based stopped-flow assay.
The target in the next assay is Carbonic anhydrase 9 (Homo sapiens, UniProt Q16790). As to the kind of experiment: Inhibition of human recombinant carbonic anhydrase 9 assessed as CO2 hydration preincubated for 15 mins prior to testing measured for 10 to 100 secs by phenol red dye-based stopped-flow assay.
The subject of assay [1] is Mus musculus. Briefly: Anticonvulsant activity in Swiss albino mouse assessed as protection against maximal electroshock-induced seizures at 30 mg/kg, ip administered 0.5 hrs prior to 50 mA current induction relative to control. The format is functional. For orientation: Protection in the maximal electroshock model is a classic sign of anticonvulsant action.
The test system of assay [2] is Mus musculus. As to the kind of experiment: Anticonvulsant activity in Swiss albino mouse assessed as protection against maximal electroshock-induced seizures at 30 mg/kg, ip administered 3 hrs prior to 50 mA current induction relative to control. The class given is functional.
In assay [3] the test system is Mus musculus. Briefly: Anticonvulsant activity in Swiss albino mouse assessed as protection against maximal electroshock-induced seizures at 100 mg/kg, ip administered 0.5 hrs prior to 50 mA current induction relative to control. The format is functional.
Assay [4] concerns Mus musculus. As to the kind of experiment: Anticonvulsant activity in Swiss albino mouse assessed as protection against maximal electroshock-induced seizures at 100 mg/kg, ip administered 3 hrs prior to 50 mA current induction relative to control. The format is functional.
Assay [5] deals with Mus musculus. As to the kind of experiment: Anticonvulsant activity in Swiss albino mouse assessed as protection against subcutaneous PTZ-induced seizures at 30 mg/kg, ip administered 0.5 hrs prior to PTZ-induction relative to control. The format is functional.
Assay [6] deals with Mus musculus. As to the kind of experiment: Anticonvulsant activity in Swiss albino mouse assessed as protection against subcutaneous PTZ-induced seizures at 30 mg/kg, ip administered 3 hrs prior to PTZ-induction relative to control. The format is functional.
Assay [7] concerns Mus musculus. Briefly: Anticonvulsant activity in Swiss albino mouse assessed as protection against subcutaneous PTZ-induced seizures at 100 mg/kg, ip administered 0.5 hrs prior to PTZ-induction relative to control. The class given is functional.
The subject of assay [8] is Mus musculus. Briefly: Anticonvulsant activity in Swiss albino mouse assessed as protection against subcutaneous PTZ-induced seizures at 100 mg/kg, ip administered 3 hrs prior to PTZ-induction relative to control. The class given is functional.
Assay [9] relates to Mus musculus. As to the kind of experiment: Anticonvulsant activity in Swiss albino mouse assessed as protection against maximal electroshock-induced seizures at 30 mg/kg, ip administered 3 hrs prior to 50 mA current induction relative to control.
In assay [10] the test system is Mus musculus. Briefly: Anticonvulsant activity in Swiss albino mouse assessed as protection against maximal electroshock-induced seizures at 100 mg/kg, ip administered 3 hrs prior to 50 mA current induction relative to control.
The test system of assay [11] is Mus musculus. Briefly: Anticonvulsant activity in Swiss albino mouse assessed as protection against maximal electroshock-induced seizures at 30 mg/kg, ip administered 0.5 hrs prior to 50 mA current induction relative to control.
The subject of assay [12] is Mus musculus. As to the kind of experiment: Anticonvulsant activity in Swiss albino mouse assessed as protection against maximal electroshock-induced seizures at 100 mg/kg, ip administered 0.5 hrs prior to 50 mA current induction relative to control.

The structures appear in SMILES notation.

For orientation: Ki means the dissociation constant of the complex between target and ligand, obtained from inhibition or displacement.

Carbonic anhydrase 7, sequence (P43166 whole entry): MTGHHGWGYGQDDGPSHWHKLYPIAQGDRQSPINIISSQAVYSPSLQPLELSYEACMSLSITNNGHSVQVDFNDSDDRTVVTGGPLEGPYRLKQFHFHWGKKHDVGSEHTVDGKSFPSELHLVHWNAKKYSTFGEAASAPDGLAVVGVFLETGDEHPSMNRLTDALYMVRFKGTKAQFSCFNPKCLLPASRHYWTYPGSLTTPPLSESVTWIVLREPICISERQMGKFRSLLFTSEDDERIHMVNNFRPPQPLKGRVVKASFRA
Carbonic anhydrase 1, sequence (P00915 whole entry): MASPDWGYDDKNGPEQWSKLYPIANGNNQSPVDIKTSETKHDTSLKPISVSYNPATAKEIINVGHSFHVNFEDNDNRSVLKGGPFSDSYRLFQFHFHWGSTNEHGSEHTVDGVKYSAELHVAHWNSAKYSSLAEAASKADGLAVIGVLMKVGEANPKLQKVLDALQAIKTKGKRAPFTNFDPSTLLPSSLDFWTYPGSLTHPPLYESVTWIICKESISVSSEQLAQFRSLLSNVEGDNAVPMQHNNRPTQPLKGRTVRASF

For the compound `NS(=O)(=O)c1ccc(C(=O)N/N=C/c2ccc(N3CCN(c4ncccn4)CC3)cc2)cc1`, the Ki at Carbonic anhydrase 1 was determined as 2060 nM; at Carbonic anhydrase 2, 963 nM; on Carbonic anhydrase 7, 132 nM; at Carbonic anhydrase 9, 1840 nM.

`NS(=O)(=O)c1ccc(C(=O)N/N=C/c2ccc(N3CCN(C(=O)c4ccco4)CC3)cc2)cc1`: the Ki on Carbonic anhydrase 1 came to 9490 nM; on Carbonic anhydrase 2 it was 686 nM; on Carbonic anhydrase 7, 78.8 nM; on Carbonic anhydrase 9, 30.4 nM.

For `NS(=O)(=O)c1ccc(C(=O)N/N=C/c2ccc(N3CCN(c4ccc(F)cc4)CC3)cc2)cc1`, the Ki at Carbonic anhydrase 1 came to 5800 nM; on Carbonic anhydrase 2, 822 nM; on Carbonic anhydrase 7, 147 nM; on Carbonic anhydrase 9 it was 1960 nM.

In the case of `NS(=O)(=O)c1ccc(N/N=C/c2ccc(N3CCN(c4ccc(C(F)(F)F)cc4)CC3)cc2)cc1`, the Ki at Carbonic anhydrase 1 turned out to be 9470 nM; at Carbonic anhydrase 2, 7520 nM; at Carbonic anhydrase 7 it was 118 nM; on Carbonic anhydrase 9, 1930 nM.

Turning to `NS(=O)(=O)c1ccc(N/N=C/c2ccc(N3CCN(C(=O)c4ccccc4)CC3)cc2)cc1`, the Ki is greater than 10000 nM at Carbonic anhydrase 1, 2790 nM at Carbonic anhydrase 2, 127 nM on Carbonic anhydrase 7 and 2490 nM at Carbonic anhydrase 9.

Take `NS(=O)(=O)c1ccc(N/N=C/c2ccc(N3CCN(c4ncccn4)CC3)cc2)cc1`: the inhibitory constant (Ki) at Carbonic anhydrase 1 was greater than 10000 nM; at Carbonic anhydrase 2, 8400 nM; at Carbonic anhydrase 7, 607 nM; at Carbonic anhydrase 9 it was 2230 nM.

`NS(=O)(=O)c1ccc(C(=O)N/N=C/c2ccc(N3CCN(c4ccc(C(F)(F)F)cc4)CC3)cc2)cc1`: the Ki is 8160 nM at Carbonic anhydrase 1, 556 nM on Carbonic anhydrase 2, 148 nM at Carbonic anhydrase 7 and 1850 nM at Carbonic anhydrase 9.

As for `NS(=O)(=O)c1ccc(C(=O)N/N=C/c2ccc(N3CCN(c4ccccc4)CC3)cc2)cc1`, the Ki at Carbonic anhydrase 1 was greater than 10000 nM; on Carbonic anhydrase 2, 4130 nM; at Carbonic anhydrase 7 it was 181 nM; on Carbonic anhydrase 9 it was 276 nM.

Regarding `NS(=O)(=O)c1ccc(N/N=C/c2ccc(N3CCN(C(=O)c4ccco4)CC3)cc2)cc1`, the inhibition constant (Ki) at Carbonic anhydrase 1 is 322 nM; on Carbonic anhydrase 2, 30.8 nM; on Carbonic anhydrase 7 it was 6.2 nM; on Carbonic anhydrase 9, 1790 nM. For the same compound, the Activity is recorded as 50% in the assay with Mus musculus [1]; 50% in the assay on Mus musculus [2]; 83% in the assay with Mus musculus [3]; 50% with Mus musculus [4]; 33% with Mus musculus [5]; 33% in the assay with Mus musculus [6]. Besides, the Activity in the assay on Mus musculus [7] worked out at 67%; with Mus musculus [8], 50%; in the assay on Mus musculus [9] it was 50%; with Mus musculus [10], 50%; in the assay with Mus musculus [11], 50%; in the assay with Mus musculus [12], 83%.

In the case of `NS(=O)(=O)c1ccc(C(=O)N/N=C/c2ccc(N3CCN(Cc4ccccc4)CC3)cc2)cc1`, the Ki was found to be 7100 nM on Carbonic anhydrase 1, 414 nM on Carbonic anhydrase 2, 41.5 nM on Carbonic anhydrase 7 and 163 nM at Carbonic anhydrase 9.

As to `NS(=O)(=O)c1ccc(N/N=C/c2ccc(N3CCN(c4ccccn4)CC3)cc2)cc1`, the Ki on Carbonic anhydrase 1 is greater than 10000 nM; on Carbonic anhydrase 2, 4590 nM; on Carbonic anhydrase 7, 135 nM; on Carbonic anhydrase 9, 235 nM.

With `NS(=O)(=O)c1ccc(N/N=C/c2ccc(N3CCN(c4ccccc4)CC3)cc2)cc1`, the inhibition constant Ki at Carbonic anhydrase 1 is 7860 nM; at Carbonic anhydrase 2 it was 888 nM; at Carbonic anhydrase 7, 98.4 nM; on Carbonic anhydrase 9, 1240 nM.

As to `NS(=O)(=O)c1ccc(C(=O)N/N=C/c2ccc(N3CCN(c4ccccn4)CC3)cc2)cc1`, the Ki on Carbonic anhydrase 1 was greater than 10000 nM; at Carbonic anhydrase 2 it was 4560 nM; on Carbonic anhydrase 7, 126 nM; at Carbonic anhydrase 9, 152 nM.

In the case of `NS(=O)(=O)c1ccc(C(=O)N/N=C/c2ccc(N3CCN(C(=O)OCc4ccccc4)CC3)cc2)cc1`, the Ki is 9640 nM at Carbonic anhydrase 1, 1450 nM on Carbonic anhydrase 2, 121 nM at Carbonic anhydrase 7 and 1900 nM on Carbonic anhydrase 9.

As for `Cc1ccc(N2CCN(c3ccc(/C=N/Nc4ccc(S(N)(=O)=O)cc4)cc3)CC2)c(C)c1`, the Ki at Carbonic anhydrase 1 was determined as 4110 nM; on Carbonic anhydrase 2, 553 nM; at Carbonic anhydrase 7, 72 nM; at Carbonic anhydrase 9, 1740 nM.

With `NS(=O)(=O)c1ccc(N/N=C/c2ccc(N3CCN(c4ccc(F)cc4)CC3)cc2)cc1`, the Ki at Carbonic anhydrase 1 came out at 2380 nM; on Carbonic anhydrase 2 it was 559 nM; on Carbonic anhydrase 7, 49.6 nM; on Carbonic anhydrase 9, 1270 nM.

For `NS(=O)(=O)c1ccc(C(=O)N/N=C/c2ccc(N3CCN(Cc4ccc5c(c4)OCO5)CC3)cc2)cc1`, the inhibition constant (Ki) at Carbonic anhydrase 1 is 8370 nM; on Carbonic anhydrase 2, 962 nM; at Carbonic anhydrase 7, 751 nM; at Carbonic anhydrase 9, 95.2 nM.

Turning to `NS(=O)(=O)c1ccc(N/N=C/c2ccc(N3CCN(C(=O)OCc4ccccc4)CC3)cc2)cc1`, the Ki amounted to 920 nM on Carbonic anhydrase 1, 93.9 nM on Carbonic anhydrase 2, 11.4 nM on Carbonic anhydrase 7 and 1630 nM on Carbonic anhydrase 9. The Activity with Mus musculus [1] is 50%; in the assay with Mus musculus [2], 33%; with Mus musculus [3], 50%; in the assay with Mus musculus [4] it was 67%; with Mus musculus [5] it was 50%; with Mus musculus [6], 67%. Also, the Activity in the assay on Mus musculus [7] amounted to 67%; in the assay on Mus musculus [8], 33%; in the assay with Mus musculus [9], 33%; in the assay with Mus musculus [10] it was 67%; with Mus musculus [11], 50%; with Mus musculus [12], 50%.

`NS(=O)(=O)c1ccc(C(=O)N/N=C/c2ccc(N3CCN(C(=O)c4ccccc4)CC3)cc2)cc1`: the Ki at Carbonic anhydrase 1 amounted to 5500 nM; at Carbonic anhydrase 2, 308 nM; at Carbonic anhydrase 7, 94.7 nM; at Carbonic anhydrase 9, 1050 nM.

(Values after ChEMBL document CHEMBL4270557, “Discovery of potent anti-convulsant carbonic anhydrase inhibitors: Design, synthesis, in vitro and in vivo appraisal” (Eur J Med Chem, 2018).)
